Data: patent US12559559B2, “Targeting Galectin-9 as a therapeutic strategy for T-cell exhaustion in T-cell acute lymphoblastic leukemia” (DANA-FARBER CANCER INSTITUTE, INC., priority 2019, dated 2026)
Read-outs that look alike come from different tables or passages of the source.

Columns and labels:
Notch = assay: Single-cell RNA-seq of leukemic cells of ETP T-ALL patients before and after GSI treatment; type: in vivo, human; conditions: scRNA-seq
Text: Banked blood or bone marrow samples from patients with relapsed/refractory ETP T-ALL (see Table 1) were used in this study. All patients provided informed consent and were enrolled on a phase I clinical trial (NCT01363817) with the γ-secretase inhibitor (GSI) BMS-906024, a Notch inhibitor. Ayala Pharmaceuticals is investigating AL101 (BMS-906024) in a Phase II open-label, single-arm, multicenter study in ACC patients harboring known NOTCH1-4 activating mutations (ACCURACY; NCT03691207). Normal donor blood was obtained from Research Blood Components, LLC; and mononuclear cells (PBMCs) were isolated using Ficoll-Paque PLUS from GE Healthcare.
Full-length single-cell RNA-seq libraries were prepared using the SMART-seq2 protocol (Picelli et al., 2014 Nat Protoc, 9(1):171-181). cDNA was fragmented using Nextera XT (Illumina) and amplified with indexed Nextera PCR primers. Products were quantified using a Bioanalyzer High Sensitivity DNA Kit. Pooled libraries were sequenced on a NextSeq 500 (Illumina) with an average sequencing depth of 0.5-1 million reads per cell.
Processing and quality filtering of scRNA-seq data was carried out using trimmomatic^21, STAR (Dobin et al., 2013 Bioinformatics, 29(1):15-21), HTSeq (Anders et al., 2015 Bioinformatics, 31(2):166-169) and RSEM (Li et al., 2011 BMC Bioinformatics, 12:323). Clustering of single-cell profiles and marker gene analyses were performed using PAGODA2 (Fan et al., 2016 Nature methods, 13(3):241-244), monocole2 (Trapnell et al., 2014 Nat Biotechnol, 32(4):381-386), SEURAT (Butler et al., 2018 Nature Biotechnology, 36(5):411-420) and RNA velocity (La et al., 2018 Nature, 560(7719):494-498). Single nucleotide variant and copy number analyses were performed with mutect2 (Cibulskis et al., 2013 Nat Biotechnol, 31(3):213-219), InferCNV (Patel et al., 2014 Science, 344(6190):1396-1401; Tirosh et al., 2016 Science, 352(6282):189-196) and CONICSmat (Muller et al., 2018 Bioinformatics, 34(18):3217-3219). Single-cell profiles were compared with cell types from ImmGen (Heng et al., 2008 Nat Immunol, 9[…] a log-likelihood model. Transcriptional regulon and signaling pathway activities were analyzed with SCENIC (Fernandez et al., 2016 Cell Syst, 3(5):491-495 e495) and PROGENy (Schubert et al., 2018 Nat Commun, 9(1):20). Further details of the analysis are set forth below.
In order to fully define ETP T-ALL heterogeneity on the single-cell level, a full-length transcriptome analysis of 5,077 malignant and normal immune cells (T-cells, B-cells and monocytes) was performed from bone marrow or blood from four healthy donors and five patients with relapsed/refractory ETP T-ALL, diagnosed by immunophenotyping for ETP T-ALL, all with NOTCH1 gain-of-function mutations. These patients were treated with the γ-secretase inhibitor (GSI), and pre- and post-treatment samples were processed for this study.
The effects of Notch inhibition were next explored. […] It was hypothesized that persistence of a stem-like population might be the reason for the limited effects of Notch inhibitors in patients with relapsed/refractory Notch-mutant T-ALL.

DND-41 T-ALL cell line = assay: Cell proliferation assay (CellTiter-Glo cell viability), DND-41; type: cell-based; conditions: DND41, 168 h, 7 days, read-out: IC50, cell viability normalized to DMSO
Method: (§1) FIG. 16A-16E is a series of graphs showing inhibition of T-ALL proliferation by PI3K inhibitor is increased when combined with GSI. DND-41, HPB-ALL, KOPT-K1, Jurkat and Loucy T-ALL cell lines were treated with Buparlisib, GSI, Buparlisib with 1 μM of GSI or DMSO for 7 days. Dose response curves of cell viability normalized to DMSO are shown (datapoints are derived from 3 replicates each, error bars show standard deviation).
(§2) The leukemia cell lines (all verified by STR profiling) DND-41, KOPT-K1, HPB-ALL, Loucy, MOLT-4, NALM-6, SEM, KG-1 and HL-60 were obtained from ATCC or DSMZ, and were cultured in RPMI 1640 with 10% of heat-inactivated fetal bovine serum, 1% penicillin/streptomycin (Invitrogen).
(§3) Buparlisib (Selleckchem) and GSI (Santa Cruz Biotechnology, Inc) were prepared in DMSO (Sigma-Aldrich). Cell proliferation assays were measured by CellTiter-Glo Luminescent Cell viability assay (Promega), after a period of seven days. IC50 values were calculated by fitting the dose-response curves to a three-parameter sigmoid dose-response model using GraphPad. Error bars reflect standard deviation.

HPB-ALL T-ALL cell line = assay: Cell proliferation assay (CellTiter-Glo cell viability), HPB-ALL; type: cell-based; conditions: Homo sapiens, HPBALL, 168 h, 7 days, read-out: IC50, cell viability normalized to DMSO
Method: as §1, §2, §3

Loucy T-ALL cell line = assay: Cell proliferation assay (CellTiter-Glo cell viability), Loucy; type: cell-based; conditions: 168 h, 7 days, read-out: IC50, cell viability normalized to DMSO
Method: as §1, §2, §3

Jurkat T-ALL cell line = assay: Cell proliferation assay (CellTiter-Glo cell viability), Jurkat; type: cell-based; conditions: Homo sapiens, 168 h, 7 days, read-out: IC50, cell viability normalized to DMSO
Method: as §1, §3

KOPT-K1 T-ALL cell line = assay: Cell proliferation assay (CellTiter-Glo cell viability), KOPT-K1; type: cell-based; conditions: Homo sapiens, KOPTK1, 168 h, 7 days, read-out: IC50, cell viability normalized to DMSO
Method: as §1, §2, §3

[1] = ETP T-ALL patients treated with GSI

In the case of CN1C(=O)[C@@H](NC(=O)[C@H](CCC(F)(F)F)[C@H](CCC(F)(F)F)C(N)=O)N=C(c2ccccc2)c2ccccc21 [GSI, BMS-906024], the “Cell cycle of leukemic cells upon treatment” value (Notch; [1]) is reported as “Cell cycle arrest”, the “Notch target gene expression upon treatment” value (Notch; [1]) is reported as “downregulation of Notch target genes” and the “Cycling stem-like root cells (root2) after treatment” value (Notch; ETP T-ALL patients) is reported as “abolishes the cycling stem-like root cells (root2)”. The “Non-cycling root cells (root1) after treatment” value (Notch; ETP T-ALL patients) was “persist in the face of treatment” and the “Cells with high PI3K signaling activity compared to untreated cells” value (Notch; ETP T-ALL patients, PROGENy) was “enrichment of cells with high PI3K signaling activity”.

Nc1cc(C(F)(F)F)c(-c2cc(N3CCOCC3)nc(N3CCOCC3)n2)cn1 [Buparlisib] showed an IC50 (DND-41 T-ALL cell line; DND-41, Buparlisib alone) of 1010 nM, an IC50 (DND-41 T-ALL cell line; DND-41, Buparlisib with 1 μM of GSI) of 132 nM and an IC50 (HPB-ALL T-ALL cell line; Buparlisib alone) of 340 nM. For the same molecule, the IC50 (HPB-ALL T-ALL cell line; Buparlisib with 1 μM of GSI) was 0.00723 nM, the IC50 (Loucy T-ALL cell line; Buparlisib alone) was 650 nM and the IC50 (Loucy T-ALL cell line; Buparlisib with 1 μM of GSI) was 710 nM. For the same molecule, the IC50 (Jurkat T-ALL cell line; Buparlisib alone) was 720 nM, the IC50 (Jurkat T-ALL cell line; Buparlisib with 1 μM of GSI) was 423 nM and the IC50 (KOPT-K1 T-ALL cell line; KOPT-K1, Buparlisib alone) was 1160 nM. For the same molecule, the IC50 (KOPT-K1 T-ALL cell line; KOPT-K1, Buparlisib with 1 μM of GSI) was 250 nM.
